From patent publication US11285219B2, “Peptide-oligourea hybrid compounds” (UREKA SARL, priority 2019, dated 2022) come the findings set out here.

Entries after “also recorded” stand apart in the source; their conditions may differ. Numbered stars: 1 amine (or outer) side, 2 acyl side, 3 side chain; on linkers, the order of the positions; unused ones are H or OH. Bridge positions count the residues as written; N and C are the ends. Peptide text beside a SMILES is read from it. I, II: the chains in the order shown. X4 = C[C@@H](CNC(=O)[*:1])NC(=O)NC[C@H](CCC(=O)O)NC(=O)NC[C@H](Cc1ccc(O)cc1)N[*:2]; X3 = C[C@@H](CNC(=O)[*:1])NC(=O)NC[C@H](Cc1ccc(O)cc1)NC(=O)NC[C@H](C)N[*:2]; X5 = C[C@@H](CNC(=O)N[C@@H](C)CNC(=O)[*:2])NC(=O)NC[C@H](CCC(=O)O)N[*:1]; X6 = CC(CNC(=O)NC(C)CNC(=O)[*:1])NC(=O)NCC(C)N[*:2]

One series concerns normal mice (C57BL/6J). In words: Blood glucose experiment in healthy mice. In kind it is in vivo, mouse. The conditions noted are these: for In vivo activity (indicator): blood glucose, mice, i.v.; for effect on blood glucose concentration: fed normal mice, 5 μg/mouse i.v., monitored 6 h. Also on record: key to In vivo activity (indicator): + = active; +++: + + + = more active. As for the experimental part:
In the first study, we evaluated the effect of the analogues on the blood glucose concentration of normal mice (FIG. 4). The fed mice were treated with the analogues and their blood glucose concentration was monitored before and after dosing for 6 h. […] Indeed, a decrease of blood glucose concentration is observed after 30 min and the effect is preserved for 4 h after dosing.
Blood glucose experiment in healthy mice. After the acclimation period (at least 5 days), mice (male C57BL/6J mice (Charles River laboratories) (8 weeks old, 20-25 g)) were randomized into 10 groups (n=3/group) according to their body weight. They were acutely treated via i.v. route at 10 AM (5 μg/mouse). Blood glucose was measured before dosing and at 30 min, 1, 2, 4, 6 h after dosing in fed conditions.

For series [1], the target named is T1, mouse GLP-1 receptor endogenously expressed in βTC6 cells (Mus musculus, UniProt O35659).
T1 construct: host or cells: βTC6 cells
T1 sequence (O35659 22-463): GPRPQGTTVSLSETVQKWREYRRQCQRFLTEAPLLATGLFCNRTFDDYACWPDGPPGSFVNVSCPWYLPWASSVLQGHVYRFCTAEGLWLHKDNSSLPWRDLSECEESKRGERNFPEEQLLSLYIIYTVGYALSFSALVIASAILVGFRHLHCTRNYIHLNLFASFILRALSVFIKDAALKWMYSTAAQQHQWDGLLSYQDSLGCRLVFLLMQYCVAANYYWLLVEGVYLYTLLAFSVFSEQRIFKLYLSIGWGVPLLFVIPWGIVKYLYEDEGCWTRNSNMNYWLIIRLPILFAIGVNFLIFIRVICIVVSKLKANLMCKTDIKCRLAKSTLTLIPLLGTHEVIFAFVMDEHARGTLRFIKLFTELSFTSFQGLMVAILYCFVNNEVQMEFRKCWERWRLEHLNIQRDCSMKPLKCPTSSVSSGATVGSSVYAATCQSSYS
In words: cAMP production functional assay (HTRF), agonist activity at GLP-1R. The note with it: for Potency (%), percentage of potency (cAMP production) compared to GLP-1-G^2: Table 2; for Potency (%), percentage of potency compare to GLP-1-G^2: cAMP production, Table 1; for EC50: receptor-mediated cAMP production, βTC6 cells, read-out: EC50 (nM), GLP-1R potency. In kind it is cell-based. The procedure: The agonistic activity of these hybrids were obtained by functional assays using cells expressing the […] and by measuring the receptor-mediated cAMP produced (see supporting information).
In vitro pharmacology (EC50). […] Following incubation, the cells were lysed and the fluorescence acceptor (D2-labeled cAMP) and fluorescence donor (anti-cAMP antibody labeled with europium cryptate) were added.

The next series addresses NEP 24.11 (Homo sapiens, UniProt P08473). In words: NEP 24.11 enzymatic degradation assay. The note with it: pH 8. The procedure:
Enzymatic and mouse plasma degradation studies.
Enzymatic degradation (NEP 24.11). Stock solutions of the oligomers were prepared at a concentration of 400 μM in a solution of 50 mM HEPES buffer, 50 mM NaCl, 0.05% Tween-80, pH 8.0. Stock solution of NEP 24.11 was prepared at a concentration of 100 μg/mL in water. Stability of oligomers to NEP 24.11 was assessed by conducting protease reaction in a 96-well plates at 20° C. […] Each compound was also incubated in the absence of the enzyme (12 μL of HEPES buffer and 38 μL of oligomer). At the indicated time (1, 2, 4, 6 and 22 hours) an aliquot of 10 μL was removed from each experimental reaction and pipetting into 100 μL of 1% TFA solution to quench the reaction, (t=0 min was determined using the reaction without enzyme). A portion of the quenched reaction solution was analyzed by HPLC. The time course of peptide degradation was determined by integrating the area of each peak in a series of HPLC traces.

NEP 24.11, sequence (P08473 whole entry): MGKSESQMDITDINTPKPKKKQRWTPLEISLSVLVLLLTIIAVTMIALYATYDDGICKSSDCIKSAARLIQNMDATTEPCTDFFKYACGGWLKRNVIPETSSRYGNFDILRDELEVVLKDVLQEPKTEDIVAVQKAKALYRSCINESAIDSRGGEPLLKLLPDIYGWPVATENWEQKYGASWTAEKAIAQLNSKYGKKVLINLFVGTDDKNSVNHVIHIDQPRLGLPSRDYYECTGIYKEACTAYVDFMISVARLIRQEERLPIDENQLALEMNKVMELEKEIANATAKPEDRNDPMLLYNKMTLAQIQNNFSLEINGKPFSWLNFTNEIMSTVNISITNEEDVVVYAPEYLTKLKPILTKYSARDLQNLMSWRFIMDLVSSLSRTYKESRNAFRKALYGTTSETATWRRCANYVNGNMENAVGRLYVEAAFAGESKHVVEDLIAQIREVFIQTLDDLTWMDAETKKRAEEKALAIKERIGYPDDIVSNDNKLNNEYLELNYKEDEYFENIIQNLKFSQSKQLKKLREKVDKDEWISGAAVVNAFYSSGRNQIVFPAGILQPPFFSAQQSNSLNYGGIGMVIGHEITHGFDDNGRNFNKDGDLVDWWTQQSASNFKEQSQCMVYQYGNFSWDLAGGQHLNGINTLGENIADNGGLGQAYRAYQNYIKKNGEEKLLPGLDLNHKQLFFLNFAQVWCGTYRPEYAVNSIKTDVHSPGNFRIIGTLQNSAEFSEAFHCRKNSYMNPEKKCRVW

In general, EC50 refers to the midpoint of the concentration-response curve. `CC[C@H](C)[C@H](NC(=O)[C@H](Cc1ccccc1)NC(=O)[C@H](CCC(=O)O)NC(=O)[C@H](CCCCN)NC(=O)[C@H](C)NC(=O)[C@H](C)NC(=O)NC[C@H](C)NC(=O)NC[C@H](CCC(=O)O)NC(=O)NC[C@H](Cc1ccc(O)cc1)NC(=O)[C@H](Cc1ccc(O)cc1)NC(=O)[C@H](CO)NC(=O)[C@H](CO)NC(=O)[C@@H](NC(=O)[C@H](CC(=O)O)NC(=O)[C@H](CO)NC(=O)[C@@H](NC(=O)[C@H](Cc1ccccc1)NC(=O)[C@@H](NC(=O)CNC(=O)[C@H](CCC(=O)O)NC(=O)CNC(=O)[C@@H](N)Cc1c[nH]cn1)[C@@H](C)O)[C@@H](C)O)C(C)C)C(=O)N[C@@H](C)C(=O)N[C@@H](Cc1c[nH]c2ccccc12)C(=O)N[C@@H](CC(C)C)C(=O)N[C@H](C(=O)N[C@@H](CCCCN)C(=O)NCC(=O)N[C@@H](CCCNC(=N)N)C(=O)NCC(N)=O)C(C)C` [Compound 9, GG2[Y^UE^UA^U]^14-17] (I: AAKEFIAWLVKGRG-NH2 / II: H-HGEGTFTSDVSSY; linker I:N-II:C via X4): in the series with normal mice (C57BL/6J), the “In vivo activity (indicator)” value was “+” and the “effect on blood glucose concentration” value is listed as “efficacy but no improvement”. Besides, in series [1], the “Potency (%), percentage of potency (cAMP production) compared to GLP-1-G^2” value (“Potency (%), percentage … compared to GLP-1-G^2” below) was found to be 135%; the “Potency (%), percentage of potency compare to GLP-1-G^2” value amounted to 135%; the EC50 is 0.18 nM.

The half-life is the time needed for the level to fall by half in the phase considered. Consider `CC[C@H](C)[C@H](NC(=O)[C@H](Cc1ccccc1)NC(=O)[C@H](CCC(=O)O)NC(=O)[C@H](CCCCN)NC(=O)[C@H](C)NC(=O)[C@H](C)NC(=O)[C@H](CCC(N)=O)NC(=O)CNC(=O)[C@H](CCC(=O)O)NC(=O)[C@H](CC(C)C)NC(=O)[C@H](Cc1ccc(O)cc1)NC(=O)NC[C@H](C)NC(=O)NC[C@H](C)NC(=O)N[C@@H](CNC(=O)[C@H](CO)NC(=O)[C@@H](NC(=O)[C@H](Cc1ccccc1)NC(=O)[C@@H](NC(=O)CNC(=O)[C@H](CCC(=O)O)NC(=O)CNC(=O)[C@@H](N)Cc1c[nH]cn1)[C@@H](C)O)[C@@H](C)O)CC(=O)O)C(=O)N[C@@H](C)C(=O)N[C@@H](Cc1c[nH]c2ccccc12)C(=O)N[C@@H](CC(C)C)C(=O)N[C@H](C(=O)N[C@@H](CCCCN)C(=O)NCC(=O)N[C@@H](CCCNC(=N)N)C(=O)NCC(N)=O)C(C)C` [Compound 2, GG2[D^UαA^UA^U]^9-12], for which the half-life at […] at NEP 24.11 was 3.6 h. Also, in the series on normal mice (C57BL/6J), the “effect on blood glucose concentration” value is listed as “no activity; also recorded: no effect”. In series [1], the “loss of affinity with GLP-1R compared to the native peptide” value is reported as “over a hundred fold loss”; the “Potency (%), percentage … compared to GLP-1-G^2” value is given as 2%; the “Potency (%), percentage of potency compare to GLP-1-G^2” value is 2%; the EC50 is 13 nM.

On NEP 24.11, `CC[C@H](C)[C@H](NC(=O)[C@H](Cc1ccccc1)NC(=O)[C@H](CCC(=O)O)NC(=O)[C@H](CCCCN)NC(=O)[C@H](C)NC(=O)[C@H](C)NC(=O)[C@H](CCC(N)=O)NC(=O)CNC(=O)[C@H](CCC(=O)O)NC(=O)NC[C@H](C)NC(=O)NC[C@H](Cc1ccc(O)cc1)NC(=O)NC[C@H](C)NC(=O)[C@@H](NC(=O)[C@H](CC(=O)O)NC(=O)[C@H](CO)NC(=O)[C@@H](NC(=O)[C@H](Cc1ccccc1)NC(=O)[C@@H](NC(=O)CNC(=O)[C@H](CCC(=O)O)NC(=O)CNC(=O)[C@@H](N)Cc1c[nH]cn1)[C@@H](C)O)[C@@H](C)O)C(C)C)C(=O)N[C@@H](C)C(=O)N[C@@H](Cc1c[nH]c2ccccc12)C(=O)N[C@@H](CC(C)C)C(=O)N[C@H](C(=O)N[C@@H](CCCCN)C(=O)NCC(=O)N[C@@H](CCCNC(=N)N)C(=O)NCC(N)=O)C(C)C` [Compound 5, GG2[A^UY^UA^U]^11-14] (I: EGQAAKEFIAWLVKGRG-NH2 / II: H-HGEGTFTSDV; linker I:N-II:C via X3) gave a half-life at […] of 2.9 h. Moreover, in the series with normal mice (C57BL/6J), the “In vivo activity (indicator)” value is listed as “+” and the “effect on blood glucose concentration” value was “efficacy but no improvement”. Also, in series [1], the “Potency (%), percentage … compared to GLP-1-G^2” value came out at 15% and the “Potency (%), percentage of potency compare to GLP-1-G^2” value stood at 15%.

With `CC[C@H](C)[C@@H](CNC(=O)N[C@@H](C)CNC(=O)N[C@@H](CC(C)C)C(=O)N[C@H](C(=O)N[C@@H](CCCCN)C(=O)NCC(=O)N[C@@H](CCCNC(=N)N)C(=O)NCC(N)=O)C(C)C)NC(=O)N[C@@H](CNC(=O)[C@H](CCC(=O)O)NC(=O)[C@H](CCCCN)NC(=O)[C@H](C)NC(=O)[C@H](C)NC(=O)[C@H](CCC(N)=O)NC(=O)CNC(=O)[C@H](CCC(=O)O)NC(=O)[C@H](CC(C)C)NC(=O)[C@H](Cc1ccc(O)cc1)NC(=O)[C@H](CO)NC(=O)[C@H](CO)NC(=O)[C@@H](NC(=O)[C@H](CC(=O)O)NC(=O)[C@H](CO)NC(=O)[C@@H](NC(=O)[C@H](Cc1ccccc1)NC(=O)[C@@H](NC(=O)CNC(=O)[C@H](CCC(=O)O)NC(=O)CNC(=O)[C@@H](N)Cc1c[nH]cn1)[C@@H](C)O)[C@@H](C)O)C(C)C)Cc1ccccc1` [Compound 16, GG2[F^UαI^UA^U]^22-25], at NEP 24.11, the half-life at […] is 1.8 h. Further, the “effect on blood glucose concentration” value with normal mice (C57BL/6J) is on record as “no activity; also recorded: no effect”. Moreover, in series [1], the “loss of affinity with GLP-1R compared to the native peptide” value is recorded as “over a hundred fold loss”; the “Potency (%), percentage … compared to GLP-1-G^2” value amounted to 0.4%; the “Potency (%), percentage of potency compare to GLP-1-G^2” value stood at 0.4%; the EC50 turned out to be 62 nM.

Compound `CC[C@H](C)[C@H](NC(=O)[C@H](Cc1ccccc1)NC(=O)[C@H](CCC(=O)O)NC(=O)[C@H](CCCCN)NC(=O)[C@H](C)NC(=O)NC[C@H](C)NC(=O)NC[C@H](C)NC(=O)NC[C@H](CCC(=O)O)NC(=O)[C@H](CC(C)C)NC(=O)[C@H](Cc1ccc(O)cc1)NC(=O)[C@H](CO)NC(=O)[C@H](CO)NC(=O)[C@@H](NC(=O)[C@H](CC(=O)O)NC(=O)[C@H](CO)NC(=O)[C@@H](NC(=O)[C@H](Cc1ccccc1)NC(=O)[C@@H](NC(=O)CNC(=O)[C@H](CCC(=O)O)NC(=O)CNC(=O)[C@@H](N)Cc1c[nH]cn1)[C@@H](C)O)[C@@H](C)O)C(C)C)C(=O)N[C@@H](C)C(=O)N[C@@H](Cc1c[nH]c2ccccc12)C(=O)N[C@@H](CC(C)C)C(=O)N[C@H](C(=O)N[C@@H](CCCCN)C(=O)NCC(=O)N[C@@H](CCCNC(=N)N)C(=O)NCC(N)=O)C(C)C` [Compound 11, GG2[E^UA^UA^U]^15-18] (I: H-HGEGTFTSDVSSYL / II: AKEFIAWLVKGRG-NH2; linker I:C-II:N via X5) showed a half-life at […] on NEP 24.11 of 3.9 h. The “effect on blood glucose concentration” value with normal mice (C57BL/6J) is reported as “no activity; also recorded: no effect”. Also, in series [1], the “Potency (%), percentage … compared to GLP-1-G^2” value was 13% and the “Potency (%), percentage of potency compare to GLP-1-G^2” value is reported as 13%.

For `CC[C@H](C)[C@H](NC(=O)[C@H](Cc1ccccc1)NC(=O)[C@H](CCC(=O)O)NC(=O)[C@H](CCCCN)NC(=O)[C@H](C)NC(=O)[C@H](C)NC(=O)[C@H](CCC(N)=O)NC(=O)NCC(C)NC(=O)NCC(C)NC(=O)NCC(C)NC(=O)[C@H](CO)NC(=O)[C@H](CO)NC(=O)[C@@H](NC(=O)[C@H](CC(=O)O)NC(=O)[C@H](CO)NC(=O)[C@@H](NC(=O)[C@H](Cc1ccccc1)NC(=O)[C@@H](NC(=O)CNC(=O)[C@H](CCC(=O)O)NC(=O)CNC(=O)[C@@H](N)Cc1c[nH]cn1)[C@@H](C)O)[C@@H](C)O)C(C)C)C(=O)N[C@@H](C)C(=O)N[C@@H](Cc1c[nH]c2ccccc12)C(=O)N[C@@H](CC(C)C)C(=O)N[C@H](C(=O)N[C@@H](CCCCN)C(=O)NCC(=O)N[C@@H](CCCNC(=N)N)C(=O)NCC(N)=O)C(C)C` (stereo partly drawn) [Compound 7, GG2[A^UA^UA^U]^13-16] (I: QAAKEFIAWLVKGRG-NH2 / II: H-HGEGTFTSDVSS; linker I:N-II:C via X6), the “Potency (%), percentage of potency compare to GLP-1-G^2” value in series [1] is below 0.01%.
